Measured values reported in the CheMixHub viscosity set.

Assay: xn = mol fraction of the nth substance listed
Conditions: 101.33 kPa

CCCCCCCCCCCC(=O)OCC + CCCCO
Conditions | viscosity [mPa·s]
293.15 K, x1 = 0.1001 | 2.703
293.15 K, x1 = 0.2001 | 2.643
293.15 K, x1 = 0.3002 | 2.654
293.15 K, x1 = 0.4 | 2.718
293.15 K, x1 = 0.5001 | 2.8
293.15 K, x1 = 0.6002 | 2.891
293.15 K, x1 = 0.6997 | 3.008
293.15 K, x1 = 0.8 | 3.111
293.15 K, x1 = 0.9001 | 3.225
293.15 K, x2 = 0.1019 | 3.227
293.15 K, x2 = 0.2001 | 3.082
293.15 K, x2 = 0.3 | 2.969
293.15 K, x2 = 0.4001 | 2.866
293.15 K, x2 = 0.5 | 2.781
293.15 K, x2 = 0.6 | 2.699
293.15 K, x2 = 0.7 | 2.641
293.15 K, x2 = 0.8 | 2.624
293.15 K, x2 = 0.8999 | 2.688
298.15 K, x2 = 0.1019 | 2.872
298.15 K, x2 = 0.2001 | 2.757
298.15 K, x2 = 0.3 | 2.645
298.15 K, x2 = 0.4001 | 2.566
298.15 K, x2 = 0.5 | 2.477
298.15 K, x2 = 0.6 | 2.409
298.15 K, x2 = 0.7 | 2.363
298.15 K, x2 = 0.8 | 2.342
298.15 K, x2 = 0.8999 | 2.395
303.15 K, x1 = 0.0997 | 2.129
303.15 K, x1 = 0.2001 | 2.093
303.15 K, x1 = 0.2998 | 2.118
303.15 K, x1 = 0.3532 | 2.142
303.15 K, x1 = 0.4999 | 2.233
303.15 K, x1 = 0.5982 | 2.313
303.15 K, x1 = 0.6997 | 2.386
303.15 K, x1 = 0.7986 | 2.474
303.15 K, x1 = 0.9006 | 2.582
303.15 K, x2 = 0.1019 | 2.575
303.15 K, x2 = 0.2001 | 2.468
303.15 K, x2 = 0.3 | 2.391
303.15 K, x2 = 0.4001 | 2.309
303.15 K, x2 = 0.5 | 2.241
303.15 K, x2 = 0.6 | 2.164
303.15 K, x2 = 0.7 | 2.122
303.15 K, x2 = 0.8 | 2.092
303.15 K, x2 = 0.8999 | 2.131
308.15 K, x2 = 0.1019 | 2.311
308.15 K, x2 = 0.2001 | 2.225
308.15 K, x2 = 0.3 | 2.147
308.15 K, x2 = 0.4001 | 2.084
308.15 K, x2 = 0.5 | 2.015
308.15 K, x2 = 0.6 | 1.943
308.15 K, x2 = 0.7 | 1.9
308.15 K, x2 = 0.8 | 1.868
308.15 K, x2 = 0.8999 | 1.896
313.15 K, x1 = 0.1 | 1.744
313.15 K, x1 = 0.1724 | 1.724
313.15 K, x1 = 0.2999 | 1.72
313.15 K, x1 = 0.4004 | 1.742
313.15 K, x1 = 0.4998 | 1.781
313.15 K, x1 = 0.5998 | 1.818
313.15 K, x1 = 0.7011 | 1.862
313.15 K, x1 = 0.7997 | 1.927
313.15 K, x1 = 0.8926 | 1.979
313.15 K, x2 = 0.1019 | 2.112
313.15 K, x2 = 0.2001 | 2.018
313.15 K, x2 = 0.3 | 1.946
313.15 K, x2 = 0.4001 | 1.881
313.15 K, x2 = 0.5 | 1.816
313.15 K, x2 = 0.6 | 1.754
313.15 K, x2 = 0.7 | 1.709
313.15 K, x2 = 0.8 | 1.685
313.15 K, x2 = 0.8999 | 1.695
318.15 K, x2 = 0.1019 | 1.934
318.15 K, x2 = 0.2001 | 1.855
318.15 K, x2 = 0.3 | 1.787
318.15 K, x2 = 0.4001 | 1.725
318.15 K, x2 = 0.5 | 1.66
318.15 K, x2 = 0.6 | 1.605
318.15 K, x2 = 0.7 | 1.563
318.15 K, x2 = 0.8 | 1.529
318.15 K, x2 = 0.8999 | 1.534
323.15 K, x2 = 0.1019 | 1.745
323.15 K, x2 = 0.2001 | 1.674
323.15 K, x2 = 0.3 | 1.615
323.15 K, x2 = 0.4001 | 1.563
323.15 K, x2 = 0.5 | 1.508
323.15 K, x2 = 0.6 | 1.447
323.15 K, x2 = 0.7 | 1.399
323.15 K, x2 = 0.8 | 1.374
323.15 K, x2 = 0.8999 | 1.364
